# From ChEMBL document CHEMBL1201862, “PubChem BioAssay data set” (2004)
#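 Cells were grown in 96-well plates and exposed to each compound for 48 hours at five concentrations; endpoints were interpolated linearly between bracketing concentrations, or set to the highest concentration if not reached. Abbreviation: GI50, concentration required for 50% inhibition of growth.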 Activity calls are given as the source filed them. Cut-off read from the data, not from the text of the source: active = GI50 up to about 1.1 µM and inactive = higher.
# Tests used:
# Assay in all cases: DTP human tumour cell line panel, 48 h
# CAKI-1 = test system: CAKI-1
# CCRF-CEM = test system: CCRF-CEM
# HCT-116 = test system: HCT-116
# HL-60 = test system: HL-60
# HOP-62 = test system: HOP-62
# K562 = test system: K562
# M14 = test system: M14
# M19-MEL = test system: M19-MEL
# NCI-H23 = test system: NCI-H23
# OVCAR-5 = test system: OVCAR-5
# OVCAR-8 = test system: OVCAR-8
# SF-268 = test system: SF-268
# SF-539 = test system: SF-539
# SK-MEL-28 = test system: SK-MEL-28
# SK-MEL-2 = test system: SK-MEL-2
# SK-MEL-5 = test system: SK-MEL-5
# SNB-75 = test system: SNB-75
# TK-10 = test system: TK-10
# DU-145 = test system: DU-145
# MDA-N = test system: MDA-N
SMILES,GI50 (CAKI-1),GI50 (CCRF-CEM),GI50 (HCT-116),GI50 (HL-60),GI50 (HOP-62),GI50 (K562),GI50 (M14),GI50 (M19-MEL),GI50 (NCI-H23),GI50 (OVCAR-5),GI50 (OVCAR-8),GI50 (SF-268),GI50 (SF-539),GI50 (SK-MEL-28),GI50 (SK-MEL-2),GI50 (SK-MEL-5),GI50 (SNB-75),GI50 (TK-10),GI50 (DU-145),GI50 (MDA-N)
CCOC(=O)C1=C(OC(OCC)C(CC)[Se]c2ccccc2)CCCC1 (stereo not drawn),37.3 µM (inactive),11.4 µM (inactive),17.5 µM (inactive),15.9 µM (inactive),54.2 µM (inactive),34.2 µM (inactive),15.6 µM (inactive),15.6 µM (inactive),10.9 µM (inactive),26.3 µM (inactive),19.1 µM (inactive),19 µM (inactive),17.8 µM (inactive),40.5 µM (inactive),8.32 µM (inactive),12.6 µM (inactive),16.9 µM (inactive),> 100 µM (inactive),,
CCOC(OC1=CCCC1)C(C)[Se]c1ccccc1 (stereo not drawn),65.8 µM (inactive),15.2 µM (inactive),20.9 µM (inactive),14.6 µM (inactive),> 100 µM (inactive),55.5 µM (inactive),36.4 µM (inactive),24.4 µM (inactive),26.9 µM (inactive),28.9 µM (inactive),39.5 µM (inactive),17.6 µM (inactive),23.8 µM (inactive),42.1 µM (inactive),48.4 µM (inactive),18.3 µM (inactive),39.3 µM (inactive),> 100 µM (inactive),,
O=C(NC(=O)c1cn(CCN2CCN(C(=O)NCCCCCCNC(=O)N3CCN(CCn4cc(C(=O)NC(=O)OCc5ccccc5)c(=O)[nH]c4=O)CC3)CC2)c(=O)[nH]c1=O)OCc1ccccc1,> 100 µM (inactive),> 100 µM (inactive),> 100 µM (inactive),> 100 µM (inactive),> 100 µM (inactive),> 100 µM (inactive),> 100 µM (inactive),> 100 µM (inactive),> 100 µM (inactive),> 100 µM (inactive),> 100 µM (inactive),,> 100 µM (inactive),> 100 µM (inactive),,> 100 µM (inactive),60.8 µM (inactive),> 100 µM (inactive),,
CCOC(=O)C[C@@H](C)[C@]1(C(=O)OC)CCCC1=O,> 100 µM (inactive),44.6 µM (inactive),> 41.1 µM (inactive),> 100 µM (inactive),> 100 µM (inactive),> 100 µM (inactive),> 100 µM (inactive),> 100 µM (inactive),> 71.9 µM (inactive),> 100 µM (inactive),> 100 µM (inactive),> 90.8 µM (inactive),> 100 µM (inactive),> 100 µM (inactive),> 100 µM (inactive),> 100 µM (inactive),> 100 µM (inactive),> 100 µM (inactive),,
O=C1c2ccccc2C2C1N2C(=O)C(F)(F)F (stereo not drawn),> 100 µM (inactive),25.9 µM (inactive),> 100 µM (inactive),24.7 µM (inactive),> 100 µM (inactive),44.2 µM (inactive),> 100 µM (inactive),> 100 µM (inactive),> 100 µM (inactive),> 100 µM (inactive),> 100 µM (inactive),> 100 µM (inactive),> 100 µM (inactive),> 100 µM (inactive),> 100 µM (inactive),> 100 µM (inactive),> 100 µM (inactive),> 100 µM (inactive),,
CCOC(=O)CNC(=O)OCc1ccccc1,> 100 µM (inactive),> 100 µM (inactive),> 100 µM (inactive),> 100 µM (inactive),> 100 µM (inactive),> 100 µM (inactive),> 100 µM (inactive),> 100 µM (inactive),> 100 µM (inactive),> 100 µM (inactive),> 100 µM (inactive),> 100 µM (inactive),> 100 µM (inactive),> 100 µM (inactive),> 100 µM (inactive),,> 100 µM (inactive),> 100 µM (inactive),,
COc1ccc(/C=N/NC(=O)C2=C(N)N(c3ccccc3)C(=C(C#N)C#N)S2)cc1,,> 100 µM (inactive),> 100 µM (inactive),> 100 µM (inactive),53.8 µM (inactive),> 100 µM (inactive),> 100 µM (inactive),> 100 µM (inactive),> 100 µM (inactive),> 100 µM (inactive),93.8 µM (inactive),> 100 µM (inactive),48.1 µM (inactive),> 100 µM (inactive),,> 100 µM (inactive),16 µM (inactive),> 100 µM (inactive),> 100 µM (inactive),> 100 µM (inactive)
O=C1c2ccccc2C(=O)N1C/C=C/CO,> 100 µM (inactive),> 100 µM (inactive),> 100 µM (inactive),> 100 µM (inactive),> 100 µM (inactive),> 100 µM (inactive),> 100 µM (inactive),> 100 µM (inactive),,,> 100 µM (inactive),> 100 µM (inactive),> 100 µM (inactive),> 100 µM (inactive),> 100 µM (inactive),> 100 µM (inactive),> 100 µM (inactive),> 100 µM (inactive),,
COc1cc(/C=C2\[C@H]3c4c(c(OC)c(C)c(OC)c4OC)CC(C(=O)N2Cc2ccccc2)N3C)c(OC)c(C)c1OC,30.3 µM (inactive),19.1 µM (inactive),> 100 µM (inactive),15.7 µM (inactive),19.5 µM (inactive),27.6 µM (inactive),18.1 µM (inactive),17.4 µM (inactive),34.3 µM (inactive),20.6 µM (inactive),38.5 µM (inactive),27.2 µM (inactive),19.3 µM (inactive),25.4 µM (inactive),> 10 µM (inactive),19 µM (inactive),25.4 µM (inactive),33.5 µM (inactive),,
O=C(O)CCCNS(=O)(=O)c1ccccc1,> 100 µM (inactive),> 100 µM (inactive),,> 100 µM (inactive),,> 100 µM (inactive),> 100 µM (inactive),> 100 µM (inactive),> 100 µM (inactive),> 100 µM (inactive),> 100 µM (inactive),> 100 µM (inactive),> 100 µM (inactive),> 100 µM (inactive),> 100 µM (inactive),> 100 µM (inactive),> 100 µM (inactive),> 100 µM (inactive),,
CC(=O)O/N=C/c1ncccc1OC(C)=O,> 100 µM (inactive),> 100 µM (inactive),> 100 µM (inactive),> 100 µM (inactive),> 100 µM (inactive),> 100 µM (inactive),> 100 µM (inactive),> 100 µM (inactive),> 100 µM (inactive),> 100 µM (inactive),> 100 µM (inactive),> 100 µM (inactive),> 100 µM (inactive),> 100 µM (inactive),> 100 µM (inactive),> 100 µM (inactive),> 100 µM (inactive),> 100 µM (inactive),,
c1ccc(SC(CCCCOC2CCCCO2)Sc2ccccc2)cc1 (stereo not drawn),92.7 µM (inactive),29.2 µM (inactive),47.5 µM (inactive),20.4 µM (inactive),> 100 µM (inactive),52 µM (inactive),> 100 µM (inactive),46.6 µM (inactive),40.8 µM (inactive),> 100 µM (inactive),87.5 µM (inactive),44.5 µM (inactive),> 100 µM (inactive),64.3 µM (inactive),22.6 µM (inactive),30.5 µM (inactive),49.8 µM (inactive),> 100 µM (inactive),,
O=S(=O)(O)C(F)(F)C(F)(F)C(F)(F)C(F)(F)F,> 100 µM (inactive),> 100 µM (inactive),> 100 µM (inactive),> 100 µM (inactive),> 100 µM (inactive),> 100 µM (inactive),> 100 µM (inactive),> 100 µM (inactive),> 100 µM (inactive),> 100 µM (inactive),> 100 µM (inactive),> 100 µM (inactive),> 100 µM (inactive),,> 100 µM (inactive),> 100 µM (inactive),> 100 µM (inactive),> 100 µM (inactive),,
CC(C)C(=S)N(C)O,19.9 µM (inactive),0.502 µM (active),2.29 µM (inactive),1.35 µM (inactive),24.5 µM (inactive),0.42 µM (active),21.6 µM (inactive),11.4 µM (inactive),29.8 µM (inactive),> 65.5 µM (inactive),13.9 µM (inactive),27.6 µM (inactive),25.6 µM (inactive),37.6 µM (inactive),24.5 µM (inactive),8.02 µM (inactive),22.4 µM (inactive),> 51.3 µM (inactive),,
COC(=O)[C@@H]1C(=O)O[C@@H](c2ccc(OC)c(OC)c2OC)[C@@H]1C(=O)OC.COC(=O)[C@H]1C(=O)O[C@@H](c2ccc(OC)c(OC)c2OC)[C@@H]1C(=O)OC,> 100 µM (inactive),> 100 µM (inactive),> 100 µM (inactive),> 100 µM (inactive),> 100 µM (inactive),> 100 µM (inactive),> 100 µM (inactive),> 100 µM (inactive),> 100 µM (inactive),> 100 µM (inactive),> 100 µM (inactive),> 100 µM (inactive),> 100 µM (inactive),> 100 µM (inactive),,> 100 µM (inactive),> 100 µM (inactive),> 100 µM (inactive),,
COC1CC2C3/C(=N/Nc4ccc([N+](=O)[O-])cc4[N+](=O)[O-])CCC2(C)C3C1 (stereo not drawn),> 10 µM (inactive),,> 100 µM (inactive),52.6 µM (inactive),> 10 µM (inactive),75.5 µM (inactive),> 10 µM (inactive),> 10 µM (inactive),> 10 µM (inactive),> 10 µM (inactive),> 100 µM (inactive),> 100 µM (inactive),> 10 µM (inactive),> 100 µM (inactive),> 10 µM (inactive),> 10 µM (inactive),> 10 µM (inactive),> 100 µM (inactive),,
